Measurements published in patent publication US10550116B2, “Fused bicyclic heterocycle derivatives as pesticides” (BAYER CROPSCIENCE AKTIENGESELLSCHAFT, priority 2015, dated 2020).
Values belong to the molecule of their own block, whether it stands above or below them.

Tests used:
Tetranychus urticae = Tetranychus urticae spray test, OP-resistant; type: in vivo; details: foliar, 144 h, bean leaf discs, after 6 days, read-out: efficacy
Experimental: To produce a suitable active ingredient preparation, 1 part by weight of active ingredient is dissolved with the stated parts by weight of solvent and made up with water containing an emulsifier concentration of 1000 ppm until the desired concentration is attained. To produce further test concentrations, the preparation is diluted with emulsifier-containing water. Discs of bean leaves (Phaseolus vulgaris) infested with all stages of the greenhouse red spider mite (Tetranychus urticae) are sprayed with an active ingredient preparation of the desired concentration. After 6 days, the efficacy in % is determined. 100% means that all the spider mites have been killed; 0% means that no spider mites have been killed.

Myzus persicae = Myzus persicae spray test; type: in vivo; details: foliar, Chinese cabbage leaf discs, after 5-6 days, read-out: efficacy
Experimental: (§1) To produce a suitable active ingredient preparation, 1 part by weight of active ingredient is dissolved with the stated parts by weight of solvent and made up with water containing an emulsifier concentration of 1000 ppm until the desired concentration is attained. To produce further test concentrations, the preparation is diluted with emulsifier-containing water. Discs of Chinese cabbage leaves (Brassica pekinensis) infested by all stages of the green peach aphid (Myzus persicae) are sprayed with an active ingredient preparation of the desired concentration. After 5-6 days, the efficacy in % is determined. 100% means that all the aphids have been killed; 0% means that no aphids have been killed.

Phaedon cochleariae = Phaedon cochleariae spray test; type: in vivo; details: foliar, 168 h, larvae on Chinese cabbage leaf discs, after 7 days, read-out: efficacy
Experimental: as §1, with “pekinensis)” for “pekinensis) infested by all stages of the green peach aphid (Myzus persicae)”, “concentration and, after drying, populated with larvae of the mustard beetle (Phaedon cochleariae).” for “concentration.”, “7” for “5-6”, “beetle larvae” for “aphids”

[1] = log P by HPLC on reversed-phase column (EEC Directive 79/831 Annex V.A8); type: physicochemical; details: reversed-phase C18 HPLC column; pH 7.8, aqueous ammonium hydrogencarbonate/acetonitrile; 55° C.; read-out: log P (neutral)
Experimental: The log P values are measured according to EEC Directive 79/831 Annex V.A8 by HPLC (high-performance liquid chromatography) on a reversed-phase column (C 18). Temperature: 55° C. The LC-MS determination in the acidic range is effected at pH 2.7 using 0.1% aqueous formic acid and acetonitrile (contains 0.1% formic acid) as eluents; linear gradient from 10% acetonitrile to 95% acetonitrile. Called log P (HCOOH) in the table. LC-MS determination in the neutral range is effected at pH 7.8 with 0.001 molar aqueous ammonium hydrogencarbonate solution and acetonitrile as eluents; linear gradient from 10% acetonitrile to 95% acetonitrile. Called log P (neutral) in the table. Calibration is carried out using unbranched alkan-2-ones (having 3 to 16 carbon atoms) with known log P values (log P values determined on the basis of the retention times by linear interpolation between two successive alkanones).

Spodoptera frugiperda = Spodoptera frugiperda spray test; type: in vivo; details: foliar, 168 h, caterpillars on maize leaf discs, after 7 days, read-out: efficacy
Experimental: To produce a suitable active ingredient preparation, 1 part by weight of active ingredient is dissolved with the stated parts by weight of solvent and made up with water containing an emulsifier concentration of 1000 ppm until the desired concentration is attained. To produce further test concentrations, the preparation is diluted with emulsifier-containing water. Leaf discs of maize (Zea mays) are sprayed with an active ingredient preparation of the desired concentration and, after drying, populated with caterpillars of the armyworm (Spodoptera frugiperda). After 7 days, the efficacy in % is determined. 100% means that all the caterpillars have been killed; 0% means that no caterpillar has been killed.

Meloidogyne incognita = Meloidogyne incognita test; type: in vivo; details: 20 ppm; lettuce; after 14 days
Experimental: To produce a suitable preparation of active ingredient, 1 part by weight of active ingredient is mixed with the stated amount of solvent and the concentrate is diluted with water to the desired concentration. Vessels are filled with sand, active ingredient solution, an egg/larvae suspension of the southern root-knot nematode (Meloidogyne incognita) and lettuce seeds. The lettuce seeds germinate and the plants develop. The galls develop on the roots. After 14 days, the nematicidal efficacy in % is determined by the formation of galls. 100% means that no galls were found; 0% means that the number of galls on the treated plants corresponds to the untreated control.

Structure (SMILES): CC[S+]([O-])c1cc2ccccc2nc1-c1nc2cc3c(cc2[nH]1)OC(F)(F)O3 (centres unmarked) [Example I-36]
pest or weed control at 100 g/ha (Tetranychus urticae): 90%

Structure (SMILES): CCSc1c(-c2nc3cc(C(F)(F)F)ncc3n2C)ncc2ccccc12 [I′-42]
pest or weed control at 500 g/ha (Tetranychus urticae; 500 g/ha): 70% | pest or weed control at 500 g/ha (Myzus persicae): 90%

Structure (SMILES): CCS(=O)(=O)c1cc2ccc(Cl)cc2nc1-c1nc2cc(C(F)(F)F)ncc2n1C [Example I-8, 7-Chloro-3-ethylsulphonyl-2-[3-methyl-6-(trifluoromethyl)imidazo[4,5-c]pyridin-2-yl]quinoline]
pest or weed control at 500 g/ha (Phaedon cochleariae): 100% | chromatographic logP [1]: 2.63 | pest or weed control at 500 g/ha (Myzus persicae): 90% | pest or weed control at 500 g/ha (Spodoptera frugiperda): 100%

Structure (SMILES): CCSc1cnc2nc(-c3nc4cc(C(F)(F)F)ncc4n3C)c(SCC)cc2c1 [Example I-40, 3,6-Bis(ethylsulphanyl)-2-[3-methyl-6-(trifluoromethyl)-3H-imidazo[4,5-c]pyridin-2-yl]-1,8-naphthyridine]
pest or weed control at 20 g/ha (Tetranychus urticae): 70% | chromatographic logP [1]: 3.23 | nematicidal efficacy (formation of galls) (Meloidogyne incognita): 90%

Structure (SMILES): CCSc1cc2ccccc2nc1-c1nc2cc(C(F)(F)C(F)(F)F)cnc2n1C [Example I-37]
pest or weed control at 100 g/ha (Tetranychus urticae): 90%

Structure (SMILES): CCSc1cc2ccccc2nc1-c1nc2cc(SC(F)(F)F)ccc2n1C [Example I-34, 3-Ethylsulphanyl-2-[1-methyl-5-(trifluoromethylsulphanyl)benzimidazol-2-yl]quinoline]
pest or weed control at 100 g/ha (Tetranychus urticae): 100% | chromatographic logP [1]: 4.63

Structure (SMILES): CCSc1nc2ccccc2nc1-c1nc2cc(C(F)(F)F)ncc2n1C [Example I-4, 2-Ethylsulphanyl-3-[3-methyl-6-(trifluoromethyl)imidazo[4,5-c]pyridin-2-yl]quinoxaline]
pest or weed control at 100 g/ha (Tetranychus urticae): 70% | chromatographic logP [1]: 4.1

Structure (SMILES): CCS(=O)(=O)c1cc2ccccc2nc1-c1nc2cc(C(F)(F)F)nnc2n1C [Example I-22]
pest or weed control at 100 g/ha (Tetranychus urticae): 90% | pest or weed control at 100 g/ha (Myzus persicae): 100% | pest or weed control at 100 g/ha (Spodoptera frugiperda): 100%

Structure (SMILES): CCSc1cc2ccccc2nc1-c1nc2cc(C(F)(F)F)ccc2o1 [Example I-32]
nematicidal efficacy (formation of galls) (Meloidogyne incognita): 100%

More lines, main results first:

chromatographic logP [1]: 4.17
Structure (SMILES): CCS(=O)(=O)c1cc2ccccc2nc1-c1nc2cc(SC(F)(F)F)ccc2o1 [Example I-14, 2-(3-Ethylsulphonyl-2-quinolyl)-5-(trifluoromethylsulphanyl)-1,3-benzoxazole]
pest or weed control at 500 g/ha (Phaedon cochleariae): 100% | pest or weed control at 500 g/ha (Myzus persicae): 90% | pest or weed control at 500 g/ha (Spodoptera frugiperda): 100%

chromatographic logP [1]: 3.96
Structure (SMILES): CCS(=O)(=O)c1cc2ccccc2nc1-c1nc2cc(SC(F)(F)F)ccc2n1C [Example I-21, 3-Ethylsulphonyl-2-[1-methyl-5-(trifluoromethylsulphanyl)benzimidazol-2-yl]quinoline]
pest or weed control at 20 g/ha (Tetranychus urticae): 70% | pest or weed control at 100 g/ha (Phaedon cochleariae): 100% | pest or weed control at 100 g/ha (Myzus persicae): 100% | pest or weed control at 100 g/ha (Spodoptera frugiperda): 100%

chromatographic logP [1]: 3.05
Structure (SMILES): CCS(=O)(=O)c1cc2ccccc2nc1-c1nc2cc([S+]([O-])C(F)(F)F)ccc2o1 (centres unmarked) [Example I-19, 2-(3-Ethylsulphonyl-2-quinolyl)-5-(trifluoromethylsulphinyl)-1,3-benzoxazole]
pest or weed control at 100 g/ha (Phaedon cochleariae): 100% | pest or weed control at 100 g/ha (Myzus persicae): 90% | pest or weed control at 100 g/ha (Spodoptera frugiperda): 100%

chromatographic logP [1]: 3.62
Structure (SMILES): CCS(=O)(=O)c1cc2ccccc2nc1-c1nc2cc(S(=O)(=O)C(F)(F)F)ccc2o1 [Example I-18, 2-(3-Ethylsulphonyl-2-quinolyl)-5-(trifluoromethylsulphonyl)-1,3-benzoxazole]
pest or weed control at 100 g/ha (Tetranychus urticae): 70% | pest or weed control at 100 g/ha (Phaedon cochleariae): 100% | pest or weed control at 100 g/ha (Myzus persicae): 100% | pest or weed control at 100 g/ha (Spodoptera frugiperda): 100%

chromatographic logP [1]: 3.27
Structure (SMILES): CCS(=O)(=O)c1cc2ccccc2nc1-c1nc2cc(C(F)(F)F)cnc2o1 [Example I-13]
pest or weed control at 100 g/ha (Phaedon cochleariae): 100% | pest or weed control at 500 g/ha (Myzus persicae): 100% | pest or weed control at 500 g/ha (Spodoptera frugiperda): 83%

chromatographic logP [1]: 2.79
Structure (SMILES): CCS(=O)(=O)c1cc2ccccc2nc1-c1nc2cc([S+]([O-])C(F)(F)F)ccc2n1C (centres unmarked) [Example I-23, 3-Ethylsulphonyl-2-[1-methyl-5-(trifluoromethylsulphinyl)benzimidazol-2-yl]quinoline]
pest or weed control at 20 g/ha (Tetranychus urticae): 100% | pest or weed control at 100 g/ha (Phaedon cochleariae): 100% | pest or weed control at 100 g/ha (Myzus persicae): 100% | pest or weed control at 100 g/ha (Spodoptera frugiperda): 100%

chromatographic logP [1]: 5.43
Structure (SMILES): CCSc1cc2ccccc2nc1-c1nc2cc(SC(F)(F)F)ccc2o1 [Example I-29, 2-(3-Ethylsulphanyl-2-quinolyl)-5-(trifluoromethylsulphanyl)-1,3-benzoxazole]
pest or weed control at 100 g/ha (Tetranychus urticae): 70%

chromatographic logP [1]: 2.63
Structure (SMILES): CCS(=O)(=O)c1cc2ccccc2nc1-c1cn2cnc(C(F)(F)F)cc2n1 [Example I-11, 3-(Ethylsulphonyl)-2-[7-(trifluoromethyl)imidazo[1,2-c]pyrimidin-2-yl]quinoline]
pest or weed control at 500 g/ha (Phaedon cochleariae): 100% | pest or weed control at 500 g/ha (Myzus persicae): 70% | pest or weed control at 500 g/ha (Spodoptera frugiperda): 100%

chromatographic logP [1]: 3.39
Structure (SMILES): CCS(=O)(=O)c1cc2ccccc2nc1-c1nc2cc3c(cc2n1C)OC(F)(F)O3 [Example I-16, 6-(3-Ethylsulphonyl-2-quinolyl)-2,2-difluoro-7-methyl-[1,3]dioxolo[4,5-f]benzimidazole]
pest or weed control at 500 g/ha (Phaedon cochleariae): 100% | pest or weed control at 500 g/ha (Myzus persicae): 90% | pest or weed control at 500 g/ha (Spodoptera frugiperda): 100%
